{"source": "paper PMC5062470", "about": "“The mGluR2 positive allosteric modulator, SAR218645, improves memory and attention deficits in translational models of cognitive symptoms associated with schizophrenia” (Scientific Reports, 2016)", "type_in_all_cases": "in vivo", "key": {"CD-1 mice [1]": {"tested_on": "CD-1 mice", "experiment": "LY404039-induced turning behavior", "description": "Under light restraint, a single unilateral intracortical infusion of the selective mGluR2/3 receptor agonist, LY404039, was performed in CD-1 mice (25–30 g at arrival). An injection point was assessed using the eyes and back of the skull as landmarks. Immediately following the application of LY404039, the observation period began. The number of contralateral turns elicited in a 5 min period was recorded. SAR218645 was administered orally 60 min before infusion of LY404039 and the potentiation of the turning behavior was noted. The selective mGluR2/3 receptor antagonist, LY341495, was administered ip 90 min prior to infusion of LY404039. Statistical analysis was performed using Kruskal Wallis test followed by a Wilcoxon two-tailed comparison. Ten animals per group were used."}, "CD-1 mice [2]": {"tested_on": "CD-1 mice", "experiment": "DOI-induced head-twitch behaviors", "description": "Male CD-1 mice weighing 25–30 g at the time of testing were used. Animals were brought into the testing area and allowed at least 30 min to acclimatize. The behavior observation was conducted in a wire test chamber measuring 10 cm^3. SAR218645 or the selective 5-HT2A receptor antagonist, volinanserin, was administered po at various times before administration of DOI. DOI was injected ip at a dose of 1 mg/kg. Five minutes later behavioral observation commenced. A trained (blinded) observer continuously watched the mice for 20 min and noted the number of DOI-induced head twitches during this time. The number of head twitches per group was averaged and SAR218645 or volinanserin plus DOI were compared to DOI alone. Three to eight animals per group were used."}, "C57BL/6J mice": {"tested_on": "C57BL/6J mice", "experiment": "Amphetamine-induced disruption of latent inhibition (LI)", "conditions": "dose-range 0.1–10, po", "description": "The procedure was based on that described by Lipina et al.[39]. Briefly, male C57BL/6J mice (20–30 g, 6–8-week-old) were water restricted and trained to drink in an operant chamber for 15 min over 5 daily sessions. The LI procedure was completed in the following stages each given 24 h apart: (a) Pre-exposure: The preexposed (PE) animals received 40, 85-dB white noise presentations in the chamber for 50 min; the non-preexposed (NPE) animals were confined to the chamber for the same period but without the presence of the tone. (b) Conditioning: All mice received 2 tone-shock (1 s, 0.37 mA) pairings in the chamber. (c) Test: Each mouse was placed in the chamber and allowed to drink. After completing 75 licks, the white noise was presented and lasted until the mouse completed 100 licks. For data analysis, the time during 50–75 licks (A period) and the time to complete licks 76–100 (after tone onset; B period) was calculated into a suppression ratio defined as A/(A+B). A low suppression ratio indicates a stronger suppression of drinking. LI is defined as an […] in suppression ratio (little or no suppression), whereas a shorter time to complete licks 76–100 of the pre-exposed mice compared to the non-pre-exposed mice. Data (i.e. suppression ratio) were analyzed using the Friedman nonparametric two-way ANOVA model. […]"}, "Sprague-Dawley rats": {"tested_on": "Sprague-Dawley rats", "experiment": "Amphetamine-induced disruption of auditory evoked potentials (AEP)", "source_text": "All recordings were made using Spike2 software (Cambridge Electronic Design, Cambridge, UK) running on a Windows PC connected to a 1401 interface (Cambridge Electronic Design, Cambridge, UK). EEG recordings were created by connecting the skull plug to an amplifying head stage (AI 1401, Axon Instruments, Union City, CA, USA), via a 6-channel commutator and cable (Plastics One, Roanoke, VA, USA). The signal was then further amplified with a multichannel amplifier (Cyberamp 380, Axon Instruments, Union City, CA, USA). Auditory stimuli were controlled by the interface via an eight channel power amplifier (SA8, Tucker Davis Technologies, Alachua, FL) connected to a patch panel (PP16, Tucker Davis Technologies), which was connected to speakers located above each cage (TDT Magnetic Speakers, Tucker Davis Technologies). During recording sessions, animals were placed inside standard mouse cages (30 × 15 × 15 cm) and rigged so that the six channel cables could connect with the rest of the apparatus outside of the cage.\nMale Sprague-Dawley rats (150–180 g at arrival) were anesthetized with 3% isoflurane and their scalp was shaved and prepared for surgery. An incision was made in the scalp and the skin was retracted to allow direct contact with the skull surface. The skull was cleaned with a dry Q-tip and five holes were drilled through the skull. Three holes were drilled at coordinates AP + 1 mm, ML + 1 mm (reference); AP−4 mm, ML ± 4 mm (leads 1 and 2) relative to bregma, while an additional hole was drilled in the frontal area (ground) and another hole was drilled at the midpoint between the anterior and posterior coordinate (anchor). […]\nAEP data analysis: Data were collected and analyzed using Spike2 software (CED Software, Cambridge, UK). […] Then a horizontal cursor was placed at the highest and lowest (peak and trough) point of the P1/N1 wave, for both the wave occurring to the first tone (S1) and to the second tone (S2), and the value was recorded into an Excel spreadsheet. […]"}}}
{"smiles": "CC1(C)CCc2cc(OC[C@@H]3Cn4ccc(=O)nc4O3)ccc21", "note": "[SAR218645, (S)-2-(1,1-dimethyl-indan-5-yloxymethyl)-2,3-dihydro-oxazolo[3,2-a]pyrimidin-7-one]", "values": [{"measurement": "effect on LY404039-induced turning behavior", "setting": "CD-1 mice [1]; 3 and 10 mg/kg po, 60 min before LY404039 infusion, P < 0.01", "result": "potentiated significantly"}, {"measurement": "Minimal active dose", "setting": "CD-1 mice [1]; dose-range 1–10, po, CD-1 mice", "result": 3, "unit": "mg/kg"}, {"measurement": "Minimal active dose", "setting": "CD-1 mice [2]; dose-range 1–10, po, CD-1 mice", "result": 3, "unit": "mg/kg"}, {"measurement": "effect on DOI-induced head twitches", "setting": "CD-1 mice [2]; po, DOI 1 mg/kg ip, significant at 3 and 10 mg/kg", "result": "dose-dependently inhibited"}, {"measurement": "Minimal active dose", "setting": "C57BL/6J mice", "result": 1, "unit": "mg/kg"}, {"measurement": "effect on amphetamine-disrupted auditory gating (S2/S1 ratio)", "setting": "Sprague-Dawley rats; 0.3 and 3 mg/kg po, amphetamine 3 mg/kg", "result": "attenuated amphetamine-induced disrupted gating"}, {"measurement": "Minimal active dose", "setting": "Sprague-Dawley rats; dose-range 0.3–3, po, Sprague-Dawley rats", "result": 0.3, "unit": "mg/kg"}]}
